Experimental data reported in ChEMBL document CHEMBL3045004, “Design, synthesis and in vitro antibacterial and antifungal activities of some novel spiro[azetidine-2,3-indole]-2,4(1H)-dione” (2011).
Converted amounts (≈) assume the structure as drawn. The source made the active and inactive calls. The calls are words filed in the database; no cut-off is given here.

What was measured:
Pseudomonas aeruginosa = assay: Antibacterial activity against Pseudomonas aeruginosa MTCC-647 after 24 hr by disk-diffusion method; assay type: functional
Escherichia coli = assay: Antibacterial activity against Escherichia coli MTCC-521 after 24 hr by disk diffusion method; assay type: functional
Staphylococcus aureus = assay: Antibacterial activity against Staphylococcus aureus MTCC-96 after 24 hr by disk-diffusion method; assay type: functional
Aspergillus niger [1] = assay: Antifungal activity against Aspergillus niger MTCC-343 after 3 to 4 days by serial plate dilution method; assay type: functional; conditions: for MIC: Aspergillus niger, MTCC-343
Candida albicans [2] = assay: Antifungal activity against Candida albicans MTCC-183 after 3 to 4 days by serial plate dilution method; assay type: functional; conditions: for MIC: Candida albicans, MTCC-183
Aspergillus niger [3] = assay: Antifungal activity against Aspergillus niger MTCC-343 at >100 ug/ml after 3 to 4 days by serial plate dilution method; assay type: functional, organism-based
Candida albicans [4] = assay: Antifungal activity against Candida albicans MTCC-183 at >100 ug/ml after 3 to 4 days by serial plate dilution method; assay type: functional, organism-based
[5] = Pseudomonas aeruginosa, MTCC-647, 24 h
[6] = Escherichia coli, MTCC-521, 24 h
[7] = Staphylococcus aureus, MTCC-96, 24 h

GENTAMICIN
MIC (Pseudomonas aeruginosa): 6.25 µg/mL | MIC (Escherichia coli): 6.25 µg/mL | MIC (Staphylococcus aureus): 6.25 µg/mL

Cc1ccc(N2C(=O)C(Cl)C23C(=O)Nc2ccccc23)cc1 (stereo unspecified)
inhibition zone (IZ) (Aspergillus niger [1]): 22 mm | MIC (Aspergillus niger [1]): 6.25 µg/mL (≈ 20 µM) | inhibition zone (IZ) (Candida albicans [2]): 16 mm | MIC (Candida albicans [2]): 12.5 µg/mL (≈ 40 µM) | diameter of the inhibition zone (DIZ) (Pseudomonas aeruginosa): 17 mm | MIC (Pseudomonas aeruginosa; [5]): 25 µg/mL (≈ 79.9 µM) | diameter of the inhibition zone (DIZ) (Escherichia coli): 20 mm | MIC (Escherichia coli; [6]): 25 µg/mL (≈ 79.9 µM) | diameter of the inhibition zone (DIZ) (Staphylococcus aureus): 19 mm | MIC (Staphylococcus aureus; [7]): 25 µg/mL (≈ 79.9 µM)

CC1(C)S[C@@H]2[C@H](NC(=O)[C@H](N)c3ccc(O)cc3)C(=O)N2[C@H]1C(=O)O [AMOXICILLIN]
diameter of the inhibition zone (DIZ) (Pseudomonas aeruginosa): 30 mm | MIC (Pseudomonas aeruginosa; [5]): 6.25 µg/mL (≈ 17.1 µM) | diameter of the inhibition zone (DIZ) (Escherichia coli): 25 mm | MIC (Escherichia coli; [6]): 6.25 µg/mL (≈ 17.1 µM) | diameter of the inhibition zone (DIZ) (Staphylococcus aureus): 29 mm | MIC (Staphylococcus aureus; [7]): 6.25 µg/mL (≈ 17.1 µM)

Cc1ccccc1N1C(=O)C(Cl)C12C(=O)Nc1ccccc12 (stereo unspecified)
inhibition zone (IZ) (Aspergillus niger [1]): 24 mm | MIC (Aspergillus niger [1]): 6.25 µg/mL (≈ 20 µM) | inhibition zone (IZ) (Candida albicans [2]): 11 mm | MIC (Candida albicans [2]): 25 µg/mL (≈ 79.9 µM) | diameter of the inhibition zone (DIZ) (Pseudomonas aeruginosa): 17 mm | MIC (Pseudomonas aeruginosa; [5]): 25 µg/mL (≈ 79.9 µM) | diameter of the inhibition zone (DIZ) (Escherichia coli): 19 mm | MIC (Escherichia coli; [6]): 25 µg/mL (≈ 79.9 µM) | diameter of the inhibition zone (DIZ) (Staphylococcus aureus): 22 mm | MIC (Staphylococcus aureus; [7]): 12.5 µg/mL (≈ 40 µM)

O=C1C(Cl)C2(C(=O)Nc3c(Br)cc(Br)cc32)N1c1ccc([N+](=O)[O-])cc1 (stereo unspecified)
inhibition zone (IZ) (Aspergillus niger [1]): 23 mm | MIC (Aspergillus niger [1]): 6.25 µg/mL (≈ 12.5 µM) | inhibition zone (IZ) (Candida albicans [2]): 26 mm | MIC (Candida albicans [2]): 6.25 µg/mL (≈ 12.5 µM) | diameter of the inhibition zone (DIZ) (Pseudomonas aeruginosa): 28 mm | MIC (Pseudomonas aeruginosa; [5]): 6.25 µg/mL (≈ 12.5 µM) | diameter of the inhibition zone (DIZ) (Escherichia coli): 24 mm | MIC (Escherichia coli; [6]): 6.25 µg/mL (≈ 12.5 µM) | diameter of the inhibition zone (DIZ) (Staphylococcus aureus): 28 mm | MIC (Staphylococcus aureus; [7]): 6.25 µg/mL (≈ 12.5 µM)

CCC(C)n1ncn(-c2ccc(N3CCN(c4ccc(OCC5COC(Cn6cncn6)(c6ccc(Cl)cc6Cl)O5)cc4)CC3)cc2)c1=O (stereo unspecified) [ITRACONAZOLE]
inhibition zone (IZ) (Aspergillus niger [1]): 25 mm | MIC (Aspergillus niger [1]): 6.25 µg/mL (≈ 8.86 µM) | inhibition zone (IZ) (Candida albicans [2]): 27 mm | MIC (Candida albicans [2]): 6.25 µg/mL (≈ 8.86 µM)

Cc1ccc(N2C(=O)C(Cl)C23C(=O)Nc2c(Br)cc(Br)cc23)cc1 (stereo unspecified)
Activity (Aspergillus niger [3]): inactive | inhibition zone (IZ) (Candida albicans [2]): 16 mm | MIC (Candida albicans [2]): 12.5 µg/mL (≈ 26.6 µM) | diameter of the inhibition zone (DIZ) (Pseudomonas aeruginosa): 26 mm | MIC (Pseudomonas aeruginosa; [5]): 6.25 µg/mL (≈ 13.3 µM) | diameter of the inhibition zone (DIZ) (Escherichia coli): 22 mm | MIC (Escherichia coli; [6]): 12.5 µg/mL (≈ 26.6 µM) | diameter of the inhibition zone (DIZ) (Staphylococcus aureus): 24 mm | MIC (Staphylococcus aureus; [7]): 6.25 µg/mL (≈ 13.3 µM)

O=C1C(Cl)C2(C(=O)Nc3ccccc32)N1c1ccccc1 (stereo unspecified)
inhibition zone (IZ) (Aspergillus niger [1]): 22 mm | MIC (Aspergillus niger [1]): 12.5 µg/mL (≈ 41.8 µM) | inhibition zone (IZ) (Candida albicans [2]): 23 mm | MIC (Candida albicans [2]): 6.25 µg/mL (≈ 20.9 µM) | diameter of the inhibition zone (DIZ) (Pseudomonas aeruginosa): 18 mm | MIC (Pseudomonas aeruginosa; [5]): 25 µg/mL (≈ 83.7 µM) | diameter of the inhibition zone (DIZ) (Escherichia coli): 19 mm | MIC (Escherichia coli; [6]): 25 µg/mL (≈ 83.7 µM) | diameter of the inhibition zone (DIZ) (Staphylococcus aureus): 21 mm | MIC (Staphylococcus aureus; [7]): 12.5 µg/mL (≈ 41.8 µM)

Cc1ccccc1N1C(=O)C(Cl)C12C(=O)Nc1c(Br)cc(Br)cc12 (stereo unspecified)
inhibition zone (IZ) (Aspergillus niger [1]): 17 mm | MIC (Aspergillus niger [1]): 12.5 µg/mL (≈ 26.6 µM) | inhibition zone (IZ) (Candida albicans [2]): 19 mm | MIC (Candida albicans [2]): 6.25 µg/mL (≈ 13.3 µM) | diameter of the inhibition zone (DIZ) (Pseudomonas aeruginosa): 24 mm | MIC (Pseudomonas aeruginosa; [5]): 12.5 µg/mL (≈ 26.6 µM) | diameter of the inhibition zone (DIZ) (Escherichia coli): 23 mm | MIC (Escherichia coli; [6]): 6.25 µg/mL (≈ 13.3 µM) | diameter of the inhibition zone (DIZ) (Staphylococcus aureus): 23 mm | MIC (Staphylococcus aureus; [7]): 6.25 µg/mL (≈ 13.3 µM)

CN[C@@H]1[C@H](O[C@H]2[C@H](O[C@H]3[C@H](O)[C@@H](O)[C@H](N=C(N)N)[C@@H](O)[C@@H]3N=C(N)N)O[C@@H](C)[C@]2(O)C=O)O[C@@H](CO)[C@H](O)[C@H]1O [STREPTOMYCIN]
diameter of the inhibition zone (DIZ) (Pseudomonas aeruginosa): 31 mm | MIC (Pseudomonas aeruginosa; [5]): 6.25 µg/mL (≈ 10.7 µM) | diameter of the inhibition zone (DIZ) (Escherichia coli): 26 mm | MIC (Escherichia coli; [6]): 6.25 µg/mL (≈ 10.7 µM) | diameter of the inhibition zone (DIZ) (Staphylococcus aureus): 31 mm | MIC (Staphylococcus aureus; [7]): 6.25 µg/mL (≈ 10.7 µM)

O=C1C(Cl)C2(C(=O)Nc3c(Br)cc(Br)cc32)N1c1ccccc1 (stereo unspecified)
inhibition zone (IZ) (Aspergillus niger [1]): 14 mm | MIC (Aspergillus niger [1]): 25 µg/mL (≈ 54.8 µM) | inhibition zone (IZ) (Candida albicans [2]): 17 mm | MIC (Candida albicans [2]): 12.5 µg/mL (≈ 27.4 µM) | diameter of the inhibition zone (DIZ) (Pseudomonas aeruginosa): 26 mm | MIC (Pseudomonas aeruginosa; [5]): 12.5 µg/mL (≈ 27.4 µM) | diameter of the inhibition zone (DIZ) (Escherichia coli): 21 mm | MIC (Escherichia coli; [6]): 12.5 µg/mL (≈ 27.4 µM) | diameter of the inhibition zone (DIZ) (Staphylococcus aureus): 24 mm | MIC (Staphylococcus aureus; [7]): 6.25 µg/mL (≈ 13.7 µM)

O=C1C(Cl)C2(C(=O)Nc3ccccc32)N1c1ccc([N+](=O)[O-])cc1 (stereo unspecified)
inhibition zone (IZ) (Aspergillus niger [1]): 24 mm | MIC (Aspergillus niger [1]): 6.25 µg/mL (≈ 18.2 µM) | inhibition zone (IZ) (Candida albicans [2]): 25 mm | MIC (Candida albicans [2]): 6.25 µg/mL (≈ 18.2 µM) | diameter of the inhibition zone (DIZ) (Pseudomonas aeruginosa): 17 mm | MIC (Pseudomonas aeruginosa; [5]): 25 µg/mL (≈ 72.7 µM) | diameter of the inhibition zone (DIZ) (Escherichia coli): 20 mm | MIC (Escherichia coli; [6]): 25 µg/mL (≈ 72.7 µM) | diameter of the inhibition zone (DIZ) (Staphylococcus aureus): 19 mm | MIC (Staphylococcus aureus; [7]): 25 µg/mL (≈ 72.7 µM)

OC(Cn1cncn1)(Cn1cncn1)c1ccc(F)cc1F [FLUCONAZOLE]
inhibition zone (IZ) (Aspergillus niger [1]): 26 mm | MIC (Aspergillus niger [1]): 6.25 µg/mL (≈ 20.4 µM) | inhibition zone (IZ) (Candida albicans [2]): 27 mm | MIC (Candida albicans [2]): 6.25 µg/mL (≈ 20.4 µM)

O=C1C(Cl)C2(C(=O)Nc3c(Br)cc(Br)cc32)N1c1ccccc1[N+](=O)[O-] (stereo unspecified)
inhibition zone (IZ) (Aspergillus niger [1]): 14 mm | MIC (Aspergillus niger [1]): 25 µg/mL (≈ 49.8 µM) | inhibition zone (IZ) (Candida albicans [2]): 19 mm | MIC (Candida albicans [2]): 6.25 µg/mL (≈ 12.5 µM) | diameter of the inhibition zone (DIZ) (Pseudomonas aeruginosa): 27 mm | MIC (Pseudomonas aeruginosa; [5]): 6.25 µg/mL (≈ 12.5 µM) | diameter of the inhibition zone (DIZ) (Escherichia coli): 21 mm | MIC (Escherichia coli; [6]): 6.25 µg/mL (≈ 12.5 µM) | diameter of the inhibition zone (DIZ) (Staphylococcus aureus): 27 mm | MIC (Staphylococcus aureus; [7]): 6.25 µg/mL (≈ 12.5 µM)

O=C1C(Cl)C2(C(=O)Nc3ccccc32)N1c1ccccc1[N+](=O)[O-] (stereo unspecified)
Activity (Candida albicans [4]): inactive | inhibition zone (IZ) (Aspergillus niger [1]): 17 mm | MIC (Aspergillus niger [1]): 12.5 µg/mL (≈ 36.4 µM) | diameter of the inhibition zone (DIZ) (Pseudomonas aeruginosa): 19 mm | MIC (Pseudomonas aeruginosa; [5]): 25 µg/mL (≈ 72.7 µM) | diameter of the inhibition zone (DIZ) (Escherichia coli): 21 mm | MIC (Escherichia coli; [6]): 12.5 µg/mL (≈ 36.4 µM) | diameter of the inhibition zone (DIZ) (Staphylococcus aureus): 17 mm | MIC (Staphylococcus aureus; [7]): 12.5 µg/mL (≈ 36.4 µM)
